{
  "source": "paper PMC3939009",
  "about": "“Thrombin inhibitory activity of some polyphenolic compounds” (Medicinal Chemistry Research, 2013)",
  "key": {"[1]": {"molecular_target": "T1, human thrombin (Homo sapiens, UniProt P00734)", "assay": "Analysis of thrombin inhibition parameters (Lineweaver–Burk curves)", "type": "biochemical", "design": "Thrombin, also known as an active plasma coagulation factor II; purchased Sigma-Aldrich Chemical Co. (St. Louis, MO, USA) T7009", "method": "Absorbance was monitored every 12 s for 10 min in a 96-well microplate reader. The velocity of reaction was expressed as the increase in product (pNA) over time (∆ μmol/min) using a computer program Mikcroplate Manager® 8 and the extinction coefficient of p-nitroaniline. […] Then, the Lineweaver–Burk ([1934]) curves for thrombin in the presence and in the absence of polyphenol compounds were plotted. The Lineweaver–Burk equation, which is a transformation of the Michaelis–Menten model, looks as follows: 1/V=Km/Vmax·1/[S]+1/Vmax"}, "[2]": {"molecular_target": "T1, human thrombin", "assay": "Thrombin-induced fibrinogen polymerization", "type": "biochemical", "design": "Thrombin, also known as an active plasma coagulation factor II; purchased Sigma-Aldrich Chemical Co. (St. Louis, MO, USA) T7009", "settings": "thrombin preincubated with compound, 10 min 37 °C", "method": "In these preparations, to nine volumes of thrombin one volume of polyphenolic compounds was added (final thrombin concentration was 15.8 nM). All tested compounds were dissolved in 50 % DMSO to the initial concentration of 10 mM; other solutions of compounds were also prepared in 50 % DMSO (prepared in 50 mM TBS, pH 7.4). […] Polymerization of fibrin was monitored at 595 nm using a 96-well microtiter plate reader. To each reaction well of the microtiter plate, 100 μl of fibrinogen (3 mg/ml) in 50 mM TBS and 5 mM CaCl2, pH 7.4, were added. […] The maximal velocity of the polymerization process (V max, Δm OD/min) for each absorbance curve was determined (Nowak et al., [2007])."}, "[3]": {"molecular_target": "T1, human thrombin", "assay": "Amidolytic activity of thrombin (hydrolysis of chromogenic substrate D-Phe-Pip-Arg-pNA)", "type": "biochemical", "design": "Thrombin, also known as an active plasma coagulation factor II; purchased Sigma-Aldrich Chemical Co. (St. Louis, MO, USA) T7009; host or cells: purified from human plasma", "settings": "at 375 μM substrate concentration; compounds 0.1–1,000 μM, preincubation 10 min 37 °C; read-out: IC50, amidolytic activity of human thrombin", "method": "All tested compounds were dissolved in 50 % DMSO to the initial concentration of 10 mM; other solutions of compounds were also prepared in 50 % DMSO (prepared in 50 mM TBS, pH 7.4). The final concentration of DMSO in thrombin samples was 5 %. To prepare thrombin control samples, the same volume of solvent (50 % DMSO prepared in 50 mM TBS, pH 7.4) was added as in the case of the compound volume and warmed for 10 min to 37 °C.\nTo each reaction well, 40 μl of 3 mM chromogenic substrate was added. To initiate the chromogenic reaction, 280 μl of control thrombin (without tested compounds) or thrombin after preincubation with a polyphenolic compound to every reaction well in the same moment was added. The absorbance value was monitored every 12 s for 10 min. The maximal velocity of the reaction (V max, Δm OD/min) for each absorbance curve was determined. IC50 value (parameter) for every polyphenolic compound from inhibition curves was estimated."}, "[4]": {"molecular_target": "T1, human thrombin", "assay": "SDS-PAGE analysis of thrombin-induced cross-linked fibrin formation", "type": "biochemical", "design": "Thrombin, also known as an active plasma coagulation factor II; purchased Sigma-Aldrich Chemical Co. (St. Louis, MO, USA) T7009; host or cells: purified from human plasma", "settings": "cyanin 75 and 750 μM, (+)-catechin 125 and 1,000 μM, (−)-epicatechin 150 and 1,000 μM", "method": "In these preparations, to nine volumes of thrombin one volume of polyphenolic compounds was added (final thrombin concentration was 15.8 nM). All tested compounds were dissolved in 50 % DMSO to the initial concentration of 10 mM; other solutions of compounds were also prepared in 50 % DMSO (prepared in 50 mM TBS, pH 7.4). The final concentration of DMSO in thrombin samples was 5 %. To prepare thrombin control samples, the same volume of solvent (50 % DMSO prepared in 50 mM TBS, pH 7.4) was added as in the case of the compound volume and warmed for 10 min to 37 °C.\nThe reactions incubated at 37 °C were stopped after 5, 15 and 30 min by adding 150 μl of lysis buffer (0.125 M Tris/HCl, 4 % SDS, 8 M urea, 10 % β-mercaptoethanol, pH 6.8). Samples were subjected to SDS-PAGE (polyacrylamide concentration—7.5 %) using Mini-Protean Electrophoresis Cell (Bio-Rad, Hercules, CA). Proteins were stained with Coomassie Brilliant Blue R250 (CBB)."}, "[5]": {"tested_on": "human thrombin", "assay": "Thrombin-induced platelet aggregation (turbidimetric)", "type": "cell-based", "settings": "compound preincubated with thrombin", "method": "Blood samples in 0.32 % sodium citrate from healthy volunteers without cardiovascular disorders were collected, untreated with antiplatelet drugs. […] Platelets were isolated from PRP using BSA–Sepharose 2B gel filtration method according to Walkowiak et al. ([2000]). […] In these preparations, to nine volumes of thrombin one volume of polyphenolic compounds was added (final thrombin concentration was 15.8 nM). All tested compounds were dissolved in 50 % DMSO to the initial concentration of 10 mM; other solutions of compounds were also prepared in 50 % DMSO (prepared in 50 mM TBS, pH 7.4). […] The platelet aggregation was measured by turbidimetric method (Saluk-Juszczak et al., [2007]) using dual-channel Chrono-log optical aggregometer (Chronolog, USA). […] Platelet suspensions were pre-warmed at 37 °C with stirring."}, "[6]": {"molecular_target": "T1, human thrombin", "assay": "BIAcore (SPR) analysis of binding to immobilized thrombin", "design": "Thrombin, also known as an active plasma coagulation factor II; purchased Sigma-Aldrich Chemical Co. (St. Louis, MO, USA) T7009", "method": "The biosensor assays were performed using the BIAcore 1000 biosensor system. All biosensor analyses were performed with a phosphate-buffered saline (PBS), pH 7.4, as a running buffer. […] The immobilization of thrombin on a biosensor carboxylmethyl dextran surface was performed according to the BIA applications Handbook (BIAcore, [1994]). The process of protein immobilization was performed on a sensor chip CM5 surface by the positively charged functional groups of protein amino acids. The immobilization process consisted of four steps: preconcentration, activation, ligand immobilization and deactivation of the residual NHS esters. […] The temperature during the whole experiment was also constant and was set to 25.0 °C. […] Each of these solutions (10 μl) was injected into an empty sensor chip channel. […] The amount of injected activation mixture was modified, to regulate the amount of immobilized ligand. […] The conditions of the latter experiments were established by numerous pre-tests. The assessed parameters included: the buffer flow rate, the volume of analyte injection, the concentration of analytes, types and concentration of regenerators. […] For each injection of analyte solution, the volume used was 100 μl. After injection of analyte was completed, the dissociation step occurred and the level of the interaction ligand-analyte was measured. During dissociation, the particles non-covalently bound to the ligand were washed out from the working channel. […] To do these calculations, the formulas presented below were used: the association rate […]]; the dissociation rate -d[AB]/dt=kd·[AB]; the equilibrium constants: KA=[AB]/[A]·[B]=ka/kd KD=[A]·[B]/[AB]=kd/ka."}},
  "note": "Like-named read-outs stand apart in the source and are kept apart here.",
  "data": [
    {"smiles": "Oc1cc(O)c2c(c1)O[C@H](c1ccc(O)c(O)c1)[C@H](O)C2", "note": "[(−)-Epicatechin, (−)-epicatechin]", "values": [
      {"measurement": "k cat", "setting": "[1]; compound at IC50 concentration, k cat = V max/E 0, control 29.1", "result": 27.8, "unit": "s⁻¹"},
      {"measurement": "Type of inhibition", "setting": "[1]; from Lineweaver–Burk curves", "result": "competitive inhibitors"},
      {"measurement": "V max of chromogenic substrate hydrolysis by thrombin", "setting": "[1]; thrombin incubated with compound at IC50 concentration, control 30.7", "result": "29.4 10^−6 mol/min"},
      {"measurement": "K m of chromogenic substrate hydrolysis by thrombin", "setting": "[1]; thrombin incubated with compound at IC50 concentration, control 158.7", "result": "481.5 10^−6 M"},
      {"measurement": "Effect on thrombin ability to induce fibrinogen polymerization", "setting": "[2]", "result": "inhibitory effect of polymerization of human fibrinogen was not observed"},
      {"measurement": "IC50", "setting": "[3]", "result": 150, "unit": "µM"},
      {"measurement": "Changes in electrophoresis of fibrinogen treated with preincubated thrombin", "setting": "[4]", "result": "no changes were observed"},
      {"measurement": "Effect on thrombin ability to stimulate platelet aggregation", "setting": "[5]", "result": "no effect on thrombin ability to stimulate platelets aggregation"},
      {"measurement": "K A, equilibrium association constant", "setting": "[6]", "result": 192, "unit": "M^–1"},
      {"measurement": "K A, equilibrium association constant", "setting": "[6]; 5 sensorgrams, 50 to 1,000 μM", "result": 192, "unit": "M⁻¹"},
      {"measurement": "Kd", "setting": "[6]; 5 sensorgrams, 50 to 1,000 μM, read-out: K D, equilibrium dissociation constant", "result": 5190, "unit": "µM"},
      {"measurement": "kon", "setting": "[6]; 5 sensorgrams, 50 to 1,000 μM, read-out: k a, association rate", "result": 4.37, "unit": "M⁻¹ s⁻¹"},
      {"measurement": "koff", "setting": "[6]; 5 sensorgrams, 50 to 1,000 μM, read-out: k d, dissociation rate", "result": 0.0227, "unit": "s⁻¹"},
      {"measurement": "Response (RU)", "setting": "[6]; analyte 1,000 μM, thrombin immobilized on CM5 chip", "result": 431, "unit": "RU"}
    ]}
  ]
}
